{"source": "patent US9308182B2", "about": "(TEVA PHARMACEUTICAL INDUSTRIES, LTD., priority 2012, dated 2016)", "origin": "cited, not measured here", "key": {"[1]": {"details": "cited from earlier work"}, "MAO": {"test_system": "MAO", "details": "metabolite of rasagiline; cited from earlier work"}}, "note": "Where two headings read alike, the source gives them in different places.", "data": [{"smiles": "NCCc1ccc(O)cc1", "note": "[Tyramine, tyramine]", "values": [{"measurement": "increase in blood pressure", "setting": "[1]; 1 mg injected into the portal vein", "result": 18, "unit": "mmHg"}, {"measurement": "increase in blood pressure", "setting": "[1]; 1 mg injected systematically", "result": 59, "unit": "mmHg"}]}, {"smiles": "NC1CCc2ccccc21", "note": "(stereo not drawn) [aminoindan]", "values": [{"measurement": "MAO inhibition", "setting": "MAO", "result": "does not inhibit MAO"}]}]}
